Test results taken from ChEMBL document CHEMBL4418912, “Methods of identifying antagonists of the hTAS2R46 bitter taste receptor” (2014).
Active and inactive are the calls of the source.

How the values were obtained:
Type in all cases: functional, cell-based
[1] = molecular target: T1, Taste receptor type 2 member 43 (Homo sapiens) (UniProt P59537); assay: Agonist activity at recombinant human N-terminal rat ST3 receptor-fused TAS2R43 expressed in HEK293T cells co-expressing Galpha16gust44 assessed as increase in intracellular calcium level at 100 uM by FLIPR assay
T1 sequence (whole entry): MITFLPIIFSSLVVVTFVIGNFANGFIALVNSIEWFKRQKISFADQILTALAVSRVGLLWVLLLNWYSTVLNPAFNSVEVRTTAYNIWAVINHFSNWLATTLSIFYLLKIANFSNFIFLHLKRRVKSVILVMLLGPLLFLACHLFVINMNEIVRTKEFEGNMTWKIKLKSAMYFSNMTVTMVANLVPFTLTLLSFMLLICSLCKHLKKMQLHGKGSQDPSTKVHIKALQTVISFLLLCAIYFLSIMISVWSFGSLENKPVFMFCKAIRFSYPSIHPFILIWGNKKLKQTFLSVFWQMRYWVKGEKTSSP

[2] = molecular target: T2, Taste receptor type 2 member 16 (Homo sapiens) (UniProt Q9NYV7); assay: Agonist activity at recombinant human N-terminal rat ST3 receptor-fused TAS2R16 expressed in HEK293T cells co-expressing Galpha16gust44 assessed as increase in intracellular calcium level at 100 uM by FLIPR assay
T2 sequence (whole entry): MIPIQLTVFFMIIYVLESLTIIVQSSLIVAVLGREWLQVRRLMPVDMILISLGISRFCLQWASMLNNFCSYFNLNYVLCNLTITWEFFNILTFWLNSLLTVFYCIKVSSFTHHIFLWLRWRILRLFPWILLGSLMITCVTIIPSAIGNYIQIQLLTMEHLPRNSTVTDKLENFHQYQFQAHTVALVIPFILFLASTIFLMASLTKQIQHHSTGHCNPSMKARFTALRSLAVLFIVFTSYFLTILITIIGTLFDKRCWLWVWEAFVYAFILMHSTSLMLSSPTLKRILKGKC

[3] = molecular target: T3, Taste receptor type 2 member 50 (Homo sapiens) (UniProt P59544); assay: Agonist activity at recombinant human N-terminal rat ST3 receptor-fused TAS2R50 expressed in HEK293T cells co-expressing Galpha16gust44 assessed as increase in intracellular calcium level at 100 uM by FLIPR assay
T3 sequence (whole entry): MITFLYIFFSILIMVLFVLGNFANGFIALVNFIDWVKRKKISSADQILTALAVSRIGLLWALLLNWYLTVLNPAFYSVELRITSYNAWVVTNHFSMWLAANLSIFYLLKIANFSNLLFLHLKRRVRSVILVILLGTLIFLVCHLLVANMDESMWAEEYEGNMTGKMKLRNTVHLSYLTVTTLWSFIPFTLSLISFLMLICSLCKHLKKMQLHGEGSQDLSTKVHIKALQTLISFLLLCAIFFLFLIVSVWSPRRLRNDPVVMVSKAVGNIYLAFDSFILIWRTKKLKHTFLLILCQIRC

[4] = molecular target: T4, Taste receptor type 2 member 7 (Homo sapiens) (UniProt Q9NYW3); assay: Potentiation of quinine sulfate-induced agonist activity at recombinant human N-terminal rat ST3 receptor-fused TAS2R7 expressed in HEK293T cells co-expressing Galpha16gust44 assessed as increase in intracellular calcium level at 100 uM by FLIPR assay
T4 sequence (whole entry): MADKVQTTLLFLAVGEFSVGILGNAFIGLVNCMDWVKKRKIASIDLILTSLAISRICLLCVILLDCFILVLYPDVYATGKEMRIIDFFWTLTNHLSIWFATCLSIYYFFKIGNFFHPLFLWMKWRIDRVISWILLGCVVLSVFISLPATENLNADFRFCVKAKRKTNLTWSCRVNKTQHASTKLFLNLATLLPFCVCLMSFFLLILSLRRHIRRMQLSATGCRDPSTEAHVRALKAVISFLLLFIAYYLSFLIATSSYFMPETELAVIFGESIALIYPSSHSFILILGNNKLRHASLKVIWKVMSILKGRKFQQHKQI

[5] = molecular target: T5, Taste receptor type 2 member 9 (Homo sapiens) (UniProt Q9NYW1); assay: Agonist activity at recombinant human N-terminal rat ST3 receptor-fused TAS2R9 expressed in HEK293T cells co-expressing Galpha16gust44 assessed as increase in intracellular calcium level at 100 uM by FLIPR assay
T5 sequence (whole entry): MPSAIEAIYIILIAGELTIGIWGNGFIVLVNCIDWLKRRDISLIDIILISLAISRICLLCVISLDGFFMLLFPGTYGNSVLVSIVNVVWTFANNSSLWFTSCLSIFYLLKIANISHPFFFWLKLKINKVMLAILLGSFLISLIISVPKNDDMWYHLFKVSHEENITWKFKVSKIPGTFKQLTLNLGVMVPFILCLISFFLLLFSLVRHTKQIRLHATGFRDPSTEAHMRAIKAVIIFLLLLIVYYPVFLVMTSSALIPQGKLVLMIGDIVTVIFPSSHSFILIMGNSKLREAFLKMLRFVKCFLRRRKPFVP

[6] = molecular target: T6, Taste receptor type 2 member 1 (Homo sapiens) (UniProt Q9NYW7); assay: Agonist activity at recombinant human N-terminal rat ST3 receptor-fused TAS2R1 expressed in HEK293T cells co-expressing Galpha16gust44 assessed as increase in intracellular calcium level at 100 uM by FLIPR assay
T6 sequence (whole entry): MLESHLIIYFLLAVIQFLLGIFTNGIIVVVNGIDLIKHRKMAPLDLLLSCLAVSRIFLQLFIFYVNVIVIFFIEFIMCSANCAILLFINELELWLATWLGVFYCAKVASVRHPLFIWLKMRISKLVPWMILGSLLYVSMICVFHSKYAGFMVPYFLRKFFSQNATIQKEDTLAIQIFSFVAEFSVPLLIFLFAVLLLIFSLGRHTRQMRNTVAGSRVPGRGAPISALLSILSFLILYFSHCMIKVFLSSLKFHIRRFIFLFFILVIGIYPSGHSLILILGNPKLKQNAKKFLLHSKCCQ

[7] = molecular target: T7, Taste receptor type 2 member 30 (Homo sapiens) (UniProt P59541); assay: Agonist activity at recombinant human N-terminal rat ST3 receptor-fused TAS2R47 expressed in HEK293T cells co-expressing Galpha16gust44 assessed as increase in intracellular calcium level at 100 uM by FLIPR assay
T7 sequence (whole entry): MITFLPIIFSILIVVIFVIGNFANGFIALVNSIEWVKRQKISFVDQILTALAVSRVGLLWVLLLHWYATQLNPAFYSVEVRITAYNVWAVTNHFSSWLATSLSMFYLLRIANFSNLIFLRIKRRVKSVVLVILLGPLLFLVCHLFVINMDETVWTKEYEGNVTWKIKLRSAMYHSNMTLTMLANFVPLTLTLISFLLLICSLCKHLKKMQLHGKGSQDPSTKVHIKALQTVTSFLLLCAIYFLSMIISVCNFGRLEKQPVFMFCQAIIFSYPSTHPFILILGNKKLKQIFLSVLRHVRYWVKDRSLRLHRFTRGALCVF

Measured: Activity

C/C1=C\C[C@H](O)/C(C)=C/[C@H]2OC(=O)[C@@H](C)[C@@H]2CC1
active: [4] | [6]
inactive: all other assays above
